In US20070098649A1, “Method and composition for controlling oral pathogens” (priority 2004, published 2007):
Where a name gives a salt, the structure may show the parent alone. Read-outs that look alike come from different tables or passages of the source. Marks after values point to notes of the source that are not given here.

Experiments:
Assay type in all cases: cell-based
Escherichia coli [1] = test: MIC microdilution assay; settings: E. coli, agent alone, read-out: MIC of the antimicrobial agents alone
S. gordonii = test: Relative cell surface hydrophobicity (hexanes partition); settings: agent alone 5 μg ml^−1
A. actinomycetemcomitans = test: as above; settings: agent alone 5 μg ml^−1
[2] = tested on: Actinobacillus actinomycetemcomitans; test: MIC microdilution assay; settings: Aggregatibacter actinomycetemcomitans
Streptococcus gordonii [3] = test: MIC microdilution assay; settings: Streptococcus gordonii, S. gordonii
Staphylococcus aureus [4] = test: MIC microdilution assay; settings: S. aureus, agent alone, read-out: MIC of the antimicrobial agents alone
test bacteria = test: Relative cell surface hydrophobicity, statements on the test bacteria; settings: summary of Table 12
Fusobacterium nucleatum [5] = test: MIC microdilution assay; settings: Fusobacterium nucleatum, F. nucleatum
P. gingivalis = test: Relative cell surface hydrophobicity (hexanes partition); settings: agent alone 5 μg ml^−1
Porphymonas gingivalis [6] = test: MIC microdilution assay; settings: Porphyromonas gingivalis, P. gingivalis
F. nucleatum [7] = test: Viability assessment (bactericidal activity)
Method: (§1) Two representative organisms, S. mutans and F. nucleatum, were used in this study. […] Aliquots of 4 ml of agent, prepared in sterile water, were placed into sterile test tubes and 1 ml of adjusted cells was added. The control consisted of 4 ml of PBS and 1 ml of cells. Samples were removed at 0, 15, 30, and 60 minutes, serial dilutions were performed, and the appropriate dilutions plated out. The plates were incubated at 37° C. under appropriate atmospheric conditions for up to 72 hours. Viable colony counts were determined and compared to nontreated control Percentage kill was calculated using the formula: ([…]×100. Log reduction was also calculated on Log10 transformed data. Effect of Berberine on Cell Surface Hydrophobicity

S. mutans [8] = test: Viability assessment (bactericidal activity); settings: CHX (20) μg ml^−1
Method: as §1

S. mutans [9] = test: Relative cell surface hydrophobicity (hexanes partition); settings: agent alone 5 μg ml^−1
oral pathogens = test: Combination determination, statements on the oral pathogens; settings: berberine hydrochloride / berberine (B-CG and B-S)
Method: (§2) The alkaloids were tested in pair-wise combinations (fractional inhibitory concentrations, FIC) against all the bacteria to determine whether interactions were antagonistic (FIC>1), additive (0.5<FIC<1), or synergistic (FIC<0.5). The FIC was calculated by the following: (MIC Acombination/MIC Aalone)+(MIC Bcombination/MIC Balone). Where A represents compound 1 and B represents compound 2. […] In the case of A. actinomycetemcomitans and P. aeruginosa, CHX was used at 0.78 to 50 μg ml^−1. Berberine (B-CG and B-S) was used at concentrations 0.9 to 250 μg ml^−1. The antibacterial efficacy of berberine (1.95 to 500 μg ml^−1) was tested in combination against P. aeruginosa with CHX (0.78 to 50 μg ml^−1) (Sigma Chemicals) and the polymyxin antibiotic Col (0.04 to 25 μg ml^−1) (Sigma Chemicals). The plates were incubated for 24 hours.

Streptococcus gordonii [10] = test: Combination determination (FIC, MIC in combination); settings: S. gordonii; for MIC of the antimicrobial agents in combination: berberine (B-CG) combined with CHX, Tet or Dox, MIC of the named agent in the combination; for Approximate amount of antibiotic required when combined with berberine relative to when the agent is used alone: fraction of the amount alone
Method: as §2

Pseudomonas aeruginosa [11] = test: as above; settings: P. aeruginosa
Method: as §2

Staphylococcus aureus [12] = test: as above; settings: S. aureus; for MIC of the antimicrobial agents in combination: berberine (B-CG) combined with CHX, Tet or Dox, MIC of the named agent in the combination; for Growth inhibition effect when combined with berberine: berberine hydrochloride / chloride; for Approximate amount of antibiotic required when combined with berberine relative to when the agent is used alone: fraction of the amount alone
Method: as §2

Porphymonas gingivalis [13] = test: as above; settings: P. gingivalis; for MIC of the antimicrobial agents in combination: berberine (B-CG) combined with CHX, Tet or Dox, MIC of the named agent in the combination; for Approximate amount of antibiotic required when combined with berberine relative to when the agent is used alone: fraction of the amount alone
Method: as §2

Fusobacterium nucleatum [14] = test: as above; settings: F. nucleatum; for MIC of the antimicrobial agents in combination: berberine (B-CG) combined with CHX, Tet or Dox, MIC of the named agent in the combination; for Approximate amount of antibiotic required when combined with berberine relative to when the agent is used alone: fraction of the amount alone
Method: as §2

[15] = tested on: Actinobacillus actinomycetemcomitans; test: as above; settings: A. actinomycetemcomitans grown under anaerobic conditions; berberine (B-CG) combined with CHX, Tet or Dox; MIC of the named agent in the combination
Method: as §2

Escherichia coli [16] = test: as above; settings: E. coli; for MIC of the antimicrobial agents in combination: berberine (B-CG) combined with CHX, Tet or Dox, MIC of the named agent in the combination; for Growth inhibition effect when combined with berberine: berberine hydrochloride / chloride; for Approximate amount of antibiotic required when combined with berberine relative to when the agent is used alone: fraction of the amount alone
Method: as §2

Streptococcus mutans [17] = test: MIC microdilution assay; settings: Streptococcus mutans, S. mutans
F. nucleatum [18] = test: Relative cell surface hydrophobicity (hexanes partition); settings: agent alone 5 μg ml^−1
Streptococcus mutans [19] = test: Combination determination (FIC, MIC in combination); settings: S. mutans; for MIC of the antimicrobial agents in combination: berberine (B-CG) combined with CHX, Tet or Dox, MIC of the named agent in the combination; for Approximate amount of antibiotic required when combined with berberine relative to when the agent is used alone: fraction of the amount alone
Method: as §2
CHX was diluted from left to right at 10 to 0.08 μg ml^−1 ([…] 1 to 8), berberine was diluted from top to bottom at 250 to 0.09 μg ml^−1 ([…] 1 to 8). Column 9 was the cell control, column 10 was berberine alone (250 to 0.09 μg ml^−1); and column 11 was CHX alone (10 to 0.08 μg ml^−1). Row H was the solvent control (8% DMSO, H1 to H8). Column 12 was the media blank. The dilution assay was designed such that A1 contained the highest concentration of both agents (berberine 250 μg ml^−1 and CHX 10 μg ml^−1). The final concentration of berberine in wells A2 to A8 was […]. The FIC value was calculated from well C6. FIC was calculated by: (MIC Acombination/MIC Aalone)+(MIC Bcombination/MIC Balone).

Pseudomonas aeruginosa [20] = test: MIC microdilution assay; settings: Pseudomonas aeruginosa; P. aeruginosa; agent alone; read-out: MIC of the antimicrobial agents alone
[21] = A. actinomycetemcomitans grown under anaerobic conditions, agent alone, read-out: MIC of the antimicrobial agents alone
[22] = agent alone, read-out: MIC of the antimicrobial agents alone

Compound: [H]/N=C(\N/C(=N/[H])NCCCCCCNC(=N)NC(=N)Nc1ccc(Cl)cc1)Nc1ccc(Cl)cc1 [CHX, chlorhexidine gluconate]
- MIC (Escherichia coli [1]): 1.25 mg/L
- Typical reduction scores on relative cell surface hydrophobicity (S. gordonii): −6.3%
- Typical reduction scores on relative cell surface hydrophobicity (A. actinomycetemcomitans): −2.6%
- MIC [2, 21]: 50 mg/L
- MIC ([2]; Aa, A. actinomycetemcomitans, read-out: MIC of Goldenseal Alkaloids Against Selected Oral Pathogens): 50 mg/L
- MIC (Streptococcus gordonii [3]; [22]): 5 mg/L
- MIC (Streptococcus gordonii [3]; Sg, read-out: MIC of Goldenseal Alkaloids Against Selected Oral Pathogens): 5 mg/L
- MIC (Staphylococcus aureus [4]): 2.5 mg/L
- Effect on the relative hydrophobicity of the cells (test bacteria): did not appear to affect
- MIC (Fusobacterium nucleatum [5]; [22]): 2.5 mg/L
- MIC (Fusobacterium nucleatum [5]; Fn, read-out: MIC of Goldenseal Alkaloids Against Selected Oral Pathogens): 2.5 mg/L
- Typical reduction scores on relative cell surface hydrophobicity (P. gingivalis): −2.7%
- MIC (Porphymonas gingivalis [6]; [22]): 1.25 mg/L
- MIC (Porphymonas gingivalis [6]; Pg, read-out: MIC of Goldenseal Alkaloids Against Selected Oral Pathogens): 2.5 mg/L
- Viability after 60 min exposure (mean Log10 reduction of CFU) (F. nucleatum [7]; CHX (20)): 3.09* Log10
- Viability after 60 min exposure (mean Log10 reduction of CFU) (S. mutans [8]): 1.69 Log10
- Typical reduction scores on relative cell surface hydrophobicity (S. mutans [9]): 5.1%
- Growth inhibition effect when combined with berberine (oral pathogens): synergistic
- MIC of the antimicrobial agents in combination (Streptococcus gordonii [10]): 0.63 mg/L
- Approximate amount of antibiotic required when combined with berberine relative to when the agent is used alone (Streptococcus gordonii [10]): <½
- Interaction when combined with berberine (Pseudomonas aeruginosa [11]): no clear additive or synergistic effect
- MIC of the antimicrobial agents in combination (Pseudomonas aeruginosa [11]; berberine combined with CHX or Col, MIC of the named agent in the combination): 3.13** μg ml^−1
- MIC of the antimicrobial agents in combination (Staphylococcus aureus [12]): 0.63 mg/L
- Growth inhibition effect when combined with berberine (Staphylococcus aureus [12]): synergistic
- Approximate amount of antibiotic required when combined with berberine relative to when the agent is used alone (Staphylococcus aureus [12]): ½
- MIC of the antimicrobial agents in combination (Porphymonas gingivalis [13]): 0.08 mg/L
- Approximate amount of antibiotic required when combined with berberine relative to when the agent is used alone (Porphymonas gingivalis [13]): <½
- MIC of the antimicrobial agents in combination (Fusobacterium nucleatum [14]): 0.31 mg/L
- Approximate amount of antibiotic required when combined with berberine relative to when the agent is used alone (Fusobacterium nucleatum [14]): <½
- MIC of the antimicrobial agents in combination [15]: 50 mg/L
- MIC of the antimicrobial agents in combination (Escherichia coli [16]): 0.63 mg/L
- Growth inhibition effect when combined with berberine (Escherichia coli [16]): synergistic
- Approximate amount of antibiotic required when combined with berberine relative to when the agent is used alone (Escherichia coli [16]): ½
- MIC (Streptococcus mutans [17]; [22]): 1.25 mg/L
- MIC (Streptococcus mutans [17]; Sm, read-out: MIC of Goldenseal Alkaloids Against Selected Oral Pathogens): 1.25 mg/L
- Typical reduction scores on relative cell surface hydrophobicity (F. nucleatum [18]): 3.7%
- MIC of the antimicrobial agents in combination (Streptococcus mutans [19]): 0.04 mg/L
- Approximate amount of antibiotic required when combined with berberine relative to when the agent is used alone (Streptococcus mutans [19]): <½
- MIC alone used for the FIC (Streptococcus mutans [19]; same plate, 48 h): 1.25 mg/L
- MIC in combination used for the FIC (Streptococcus mutans [19]; well C6, berberine (B-G) with CHX, 48 h): 0.3125 mg/L
- MIC (Pseudomonas aeruginosa [20]): 6.25 mg/L

Compound: C[C@H]1c2cccc(O)c2C(=O)C2=C(O)[C@]3(O)C(=O)C(C(N)=O)=C(O)[C@@H](N(C)C)[C@@H]3[C@@H](O)[C@@H]21 [Dox, doxycycline HCl]
- MIC (Escherichia coli [1]): 1.53 mg/L
- Typical reduction scores on relative cell surface hydrophobicity (S. gordonii): 7.7%
- Typical reduction scores on relative cell surface hydrophobicity (A. actinomycetemcomitans): −4.1%
- MIC [2, 21]: 6.25 mg/L
- MIC (Streptococcus gordonii [3]; [22]): 0.31 mg/L
- MIC (Staphylococcus aureus [4]): 1.53 mg/L
- Effect on the relative hydrophobicity of the cells (test bacteria): did not appear to affect
- MIC (Fusobacterium nucleatum [5]; [22]): 0.04 mg/L
- Typical reduction scores on relative cell surface hydrophobicity (P. gingivalis): 1.7%
- MIC (Porphymonas gingivalis [6]; [22]): 0.08 mg/L
- Reduction of the concentration required for comparable reduction in viability when used in combination (F. nucleatum [7]; Dox (5 μg ml^−1), berberine (250 μg ml^−1)): one-half
- Viability after 60 min exposures (mean Log10 reduction of CFU) (F. nucleatum [7]; Dox (10)): 1.56 Log10
- Typical reduction scores on relative cell surface hydrophobicity (S. mutans [9]): 8.1%
- Growth inhibition effect when combined with berberine (oral pathogens): synergistic
- MIC of the antimicrobial agents in combination (Streptococcus gordonii [10]): 0.08 mg/L
- Approximate amount of antibiotic required when combined with berberine relative to when the agent is used alone (Streptococcus gordonii [10]): <¼
- MIC of the antimicrobial agents in combination (Staphylococcus aureus [12]): 0.39 mg/L
- Growth inhibition effect when combined with berberine (Staphylococcus aureus [12]): synergistic
- Approximate amount of antibiotic required when combined with berberine relative to when the agent is used alone (Staphylococcus aureus [12]; listed as Doxycycline (HCL), HCl): ⅕
- Approximate amount of antibiotic required when combined with berberine relative to when the agent is used alone (Staphylococcus aureus [12]; listed as Doxycycline-HCl, HCl): ½
- MIC of the antimicrobial agents in combination (Porphymonas gingivalis [13]): 0.01 mg/L
- Approximate amount of antibiotic required when combined with berberine relative to when the agent is used alone (Porphymonas gingivalis [13]): ¼
- MIC of the antimicrobial agents in combination (Fusobacterium nucleatum [14]): 0.10 mg/L
- Approximate amount of antibiotic required when combined with berberine relative to when the agent is used alone (Fusobacterium nucleatum [14]): ¼
- MIC of the antimicrobial agents in combination [15]: 6.25 mg/L
- MIC of the antimicrobial agents in combination (Escherichia coli [16]): 0.77 mg/L
- Growth inhibition effect when combined with berberine (Escherichia coli [16]): synergistic
- Approximate amount of antibiotic required when combined with berberine relative to when the agent is used alone (Escherichia coli [16]): ½
- MIC (Streptococcus mutans [17]; [22]): 0.78 mg/L
- Typical reduction scores on relative cell surface hydrophobicity (F. nucleatum [18]): −3.5%
- MIC of the antimicrobial agents in combination (Streptococcus mutans [19]): 0.20 mg/L
- Approximate amount of antibiotic required when combined with berberine relative to when the agent is used alone (Streptococcus mutans [19]): ¼
